The values below are quoted from earlier work in patent US8222237B2, “Progestational 3-(6,6-ethylene-17B-hydroxy-3-oxo-17A-pregna-4-ene-17A-yl)propionic acid G-lactones” (Evestra, Inc., priority 2008, dated 2012).

Structures are written as SMILES.

For series [1] the following is noted: from a single entity tablet.
The conditions of series [2]: at various pH values.
The conditions of series [3]: acidic conditions such as encountered in the gastric environment.

With `C[C@]12CCC(=O)C=C1[C@@H]1C[C@@H]1[C@H]1[C@@H]3[C@@H]4C[C@@H]4[C@@]4(CCC(=O)O4)[C@@]3(C)CC[C@@H]12` [drospirenone, 6β,7β,15β,16β-dimethylene-3-oxo-17α-pregn-4-ene-21,17-carbolactone], the absolute bioavailability entry in series [1] is “about 76%”. Also, the solubility in water result in series [2] is on record as “only sparingly soluble”. Moreover, the “isomerization under acidic conditions” value in series [3] was “undergo isomerization to a form that is inactive”.
